From patent US10253002B2, “Compounds and methods of treating infections” (Neoculi Pty Ltd., priority 2013, dated 2019)
In brackets after ≈: the same amount, converted by molar mass. Several values for one entry are separate records, joined by “and”; a condition that tells them apart may be missing. Identical values can stand only once.

Columns and labels:
[1] = tested on: S. pneumoniae isolates; test: Disk diffusion susceptibility (CLSI/EUCAST), Example 5; assay type: cell-based, Streptococcus pneumoniae
Outline: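 Susceptibility to 12 antimicrobials was categorised (S/I/R) using CLSI breakpoints from zones of complete inhibition, read thrice to the nearest millimetre with the mode taken. Incubation was 16–24 h, 37 °C, 5% CO2.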

[2] = tested on: Staphylococcus pseudintermedius isolates (MSSP and MRSP); test: Disk diffusion and Epsilometer susceptibility testing, Example 6; assay type: cell-based; conditions: 13 MRSP isolates
[3] = tested on: Staphylococcus aureus T3-129 / Staphylococcus spp. MK1; test: Synergy studies, checkerboard method (FIC index); assay type: cell-based; conditions: for FICI: FIC index of antibiotic with NCL812; for Result (interaction with NCL812): antibiotic with NCL812
[4] = tested on: S. aureus isolates (HA-MRSA, CA-MRSA, methicillin-susceptible staphylococci); test: Kirby-Bauer disc diffusion resistotyping, Example 4; assay type: cell-based, Staphylococcus aureus; conditions: for Total isolates resistant (Kirby-Bauer disc diffusion): all isolates (n = 30)
Procedure: Antibiotic-susceptibility profiling of the isolate collection was undertaken using Kirby-Bauer disc diffusion, as recommended by the Clinical and Laboratory Standards Institute (CLSI) on Mueller-Hinton agar. Isolates were grown overnight on SBA at 37° C. Colonies were suspended in physiological saline. Turbidity was adjusted to a 0.5 McFarland standard and suspensions were spread over the medium. Antibiotic discs according to Table 9 below were transferred onto the inoculated medium and analysed after 24 h incubation at 37° C.

[5] = tested on: S. pneumoniae isolates; test: Micro-broth dilution MIC, Example 5; assay type: cell-based, Streptococcus pneumoniae; conditions: Streptococcus pneumoniae, isolate D39; Table 28
Procedure: For all in vitro assays, fresh pneumococcal isolates were grown overnight (O/N) on horse blood agar (HBA) plates (39 g/L Columbia blood agar base [Oxoid] 5% [v/v] defribinated horse blood [Oxoid] at 37° C. with 5% supplemented CO2). Mueller-Hinton blood agar with 5% defibrinated sheep blood (MHSBA Roseworthy Media and Blood Service) was used for disk diffusion analysis as directed by Clinical Laboratory Standards Institute (CLSI) standards. Pneumococci were routinely grown in broth consisting of 4% lysed horse blood (LHB) with Cation Adjusted Mueller Hinton Broth (CAHMB, [Difco]) at 37° C. with 5% supplemented CO2. […] Isolates were stored in HSB at −80° C.
(§1) [Micro-broth dilutions and 96 well trays are prepared by the following method: 90 μL of 4% LHB:CAMHB is aliquotted into all wells using a multichannel pipette. 90 μL of working antimicrobial stocks were no serial diluted down the tray by a 1:2 dilution. Negative broth controls and dilution control were taken into account when planning the set up of a 96 well tray.] 10 μL of bacterial suspension was then added to the appropriate wells in the 96 well tray. Appropriate positive (no antimicrobial), negative (no antimicrobial or bacteria) and negative dilution (a serial dilution control of antimicrobial and broth) controls were included in each assay. […] The MBC was determined by a 99.95% inhibition of S. pneumoniae, taking into account the dilution factor. MICs and MBCs were determined in quadruplicate and the mode was taken as the representative value. The MIC50, MIC90 and MIC range and MBC50, MBC90 and MBC range were determined according to CLSI standards. The MIC50 and MIC90, or MBC50 and MBC90, are defined by the lowest concentrations which, when all the MICs and MBCs of the isolates are arranged from lowest to highest, inhibited the 50th and 90th percentile of the total amount of isolates, respectively.

[6] = tested on: S. pneumoniae isolates; test: MBC, Example 5; assay type: cell-based, Streptococcus pneumoniae; conditions: Streptococcus pneumoniae, isolate D39; Table 28; read-out: MBC
Procedure: as §1

[7] = tested on: Escherichia coli; test: Broth microdilution MIC, Example 7 (NCL812 and analogues); assay type: cell-based; conditions: E. coli ATCC25922, 24 hours
[8] = tested on: Pseudomonas aeruginosa; test: as above; assay type: cell-based; conditions: Pseudomonas #008, 24 hours
[9] = tested on: S. aureus ATCC29213; test: Broth microdilution MIC, Example 7 (NCL analogues), Table 42; assay type: cell-based, Staphylococcus aureus; conditions: S. aureus ATCC29213, 24 hours
[10] = tested on: E. faecalis #32; test: as above; assay type: cell-based, Enterococcus faecalis; conditions: E. faecalis #32, 24 hours
[11] = Methicillin-susceptible staphylococci (n = 10)

O=C(N[C@H](CO)[C@H](O)c1ccc([N+](=O)[O-])cc1)C(Cl)Cl [Chloramphenicol]
disk diffusion zone diameter ([1]; A66.1): 34 mm
disk diffusion zone diameter ([1]; D39): 31 mm
disk diffusion zone diameter ([1]; EF3030): 29 mm
disk diffusion zone diameter ([1]; L82016): 26 mm
disk diffusion zone diameter ([1]; P9): 31 mm
disk diffusion zone diameter ([1]; P21): 35 mm
disk diffusion zone diameter ([1]; TIGR4): 32 mm
disk diffusion zone diameter ([1]; WCH16): 11 mm
disk diffusion susceptibility category ([1]; WCH16 (Table 18)): R
disk diffusion zone diameter ([1]; WCH43): 26 mm
disk diffusion zone diameter ([1]; WCH46): 28 mm
disk diffusion zone diameter ([1]; WCH57): 40 mm
disk diffusion zone diameter ([1]; WCH77): 36 mm
disk diffusion zone diameter ([1]; WCH86): 34 mm
disk diffusion zone diameter ([1]; WCH89): 32 mm
disk diffusion zone diameter ([1]; WCH92): 32 mm
disk diffusion zone diameter ([1]; WCH137): 31 mm
disk diffusion zone diameter ([1]; WCH158): 34 mm
disk diffusion zone diameter ([1]; WCH184): 29 mm
disk diffusion zone diameter ([1]; WCH211): 32 mm
disk diffusion zone diameter ([1]; WU2): 30 mm
MRSP isolates susceptible [2]: 23%
FICI ([3]; S. aureus strain T3-29): 0.75 and 0.562
Antibiotic MIC Alone ([3]; S. aureus strain T3-29): 8 µg/mL and 4 µg/mL
Result (interaction with NCL812) ([3]; S. aureus strain T3-29): NE (No effect (NE) was defined as 0.5<FICI<4)

CC[C@H]1OC(=O)[C@H](C)[C@@H](O[C@H]2C[C@@](C)(OC)[C@@H](O)[C@H](C)O2)[C@H](C)[C@@H](O[C@@H]2O[C@H](C)C[C@H](N(C)C)[C@H]2O)[C@](C)(O)C[C@@H](C)C(=O)[C@H](C)[C@@H](O)[C@]1(C)O [Erythromycin]
isolates resistant (Kirby-Bauer disc diffusion) ([4]; CA-MRSA (n = 10)): 100.00%
isolates resistant (Kirby-Bauer disc diffusion) ([4]; HA-MRSA (n = 10)): 80.00%
isolates resistant (Kirby-Bauer disc diffusion) [4, 11]: 40.00%
Total isolates resistant (Kirby-Bauer disc diffusion) [4]: 73.33%
Total isolates resistant (Kirby-Bauer disc diffusion) ([4]; listed as erythromycin): 73.33%
disk diffusion zone diameter ([1]; A66.1): 33 mm
disk diffusion zone diameter ([1]; D39): 35 mm
disk diffusion zone diameter ([1]; EF3030): 30 mm
disk diffusion zone diameter ([1]; L82016): 29 mm
disk diffusion zone diameter ([1]; P9): 32 mm
disk diffusion zone diameter ([1]; P21): 35 mm
disk diffusion zone diameter ([1]; TIGR4): 34 mm
disk diffusion zone diameter ([1]; WCH16): 34 mm
disk diffusion zone diameter ([1]; WCH43): 29 mm
disk diffusion zone diameter ([1]; WCH46): 27 mm
disk diffusion zone diameter ([1]; WCH57): 41 mm
disk diffusion zone diameter ([1]; WCH77): 37 mm
disk diffusion zone diameter ([1]; WCH86): 30 mm
disk diffusion zone diameter ([1]; WCH89): 35 mm
disk diffusion zone diameter ([1]; WCH92): 28 mm
disk diffusion zone diameter ([1]; WCH137): 34 mm
disk diffusion zone diameter ([1]; WCH158): 34 mm
disk diffusion zone diameter ([1]; WCH184): 10 mm
disk diffusion susceptibility category ([1]; WCH184 (Table 19)): R
disk diffusion zone diameter ([1]; WCH211): 33 mm
disk diffusion zone diameter ([1]; WU2): 34 mm
Resistance status to Erythromycin ([1]; isolate D39): Sensitive
MIC [5]: 0.00275 µg/mL (≈ 0.00375 µM)
MBC [6]: 0.00275 µg/mL (≈ 0.00375 µM)
FICI ([3]; S. aureus strain T3-29): 0.75 and 0.562 and 0.5 and 0.531
Antibiotic MIC Alone ([3]; S. aureus strain T3-29): 0.25 µg/mL
Result (interaction with NCL812) ([3]; S. aureus strain T3-29): NE (No effect (NE) was defined as 0.5<FICI<4)

C/C(=N\Nc1cc(N/N=C(\C)c2ccc(Cl)cc2)ncn1)c1ccc(Cl)cc1 [NCL 178]
MIC (μg/ml) at 24 hours E. coli ATCC25922 [7]: >64 µg/mL
MIC (μg/ml) at 24 hours Pseudomonas #008 [8]: >64 µg/mL
MIC (μg/ml) at 24 hours S. aureus ATCC29213 [9]: >64 µg/mL
MIC (μg/ml) at 24 hours E. faecalis #32 [10]: >64 µg/mL

Nc1nc(N/N=C/c2ccc(Cl)cc2)cc(N/N=C/c2ccc(Cl)cc2)n1 [NCL 179]
MIC (μg/ml) at 24 hours E. coli ATCC25922 [7]: >64 µg/mL
MIC (μg/ml) at 24 hours Pseudomonas #008 [8]: >64 µg/mL
MIC (μg/ml) at 24 hours S. aureus ATCC29213 [9]: 4 µg/mL (≈ 9.99 µM)
MIC (μg/ml) at 24 hours E. faecalis #32 [10]: 8 µg/mL (≈ 20 µM)

OC/C(=N\Nc1cc(N/N=C(\CO)c2ccc(Cl)cc2)ncn1)c1ccc(Cl)cc1 [NCL 180]
MIC (μg/ml) at 24 hours E. coli ATCC25922 [7]: >64 µg/mL
MIC (μg/ml) at 24 hours Pseudomonas #008 [8]: >64 µg/mL
MIC (μg/ml) at 24 hours S. aureus ATCC29213 [9]: >64 µg/mL
MIC (μg/ml) at 24 hours E. faecalis #32 [10]: 64 µg/mL (≈ 144 µM)

Clc1ccc(/C=N/Nc2cc(N/N=C/c3ccc(Cl)cc3)ncn2)cc1 [NCL 181]
MIC (μg/ml) at 24 hours E. coli ATCC25922 [7]: >64 µg/mL
MIC (μg/ml) at 24 hours Pseudomonas #008 [8]: >64 µg/mL
MIC (μg/ml) at 24 hours S. aureus ATCC29213 [9]: >64 µg/mL
MIC (μg/ml) at 24 hours E. faecalis #32 [10]: >64 µg/mL

CN(C)[C@@H]1C(O)=C(C(N)=O)C(=O)[C@@]2(O)C(O)=C3C(=O)c4c(O)cccc4[C@@](C)(O)[C@H]3C[C@@H]12 [Tetracycline]
isolates resistant (Kirby-Bauer disc diffusion) ([4]; CA-MRSA (n = 10)): 30.00%
isolates resistant (Kirby-Bauer disc diffusion) ([4]; HA-MRSA (n = 10)): 30.00%
isolates resistant (Kirby-Bauer disc diffusion) [4, 11]: 0.00%
Total isolates resistant (Kirby-Bauer disc diffusion) [4]: 20.00%
disk diffusion zone diameter ([1]; A66.1): 32 mm
disk diffusion zone diameter ([1]; D39): 35 mm
disk diffusion zone diameter ([1]; EF3030): 34 mm
disk diffusion zone diameter ([1]; L82016): 32 mm
disk diffusion zone diameter ([1]; P9): 32 mm
disk diffusion zone diameter ([1]; P21): 38 mm
disk diffusion zone diameter ([1]; TIGR4): 35 mm
disk diffusion zone diameter ([1]; WCH16): 18 mm
disk diffusion susceptibility category ([1]; WCH16 (Table 19)): R
disk diffusion zone diameter ([1]; WCH43): 31 mm
disk diffusion zone diameter ([1]; WCH46): 30 mm
disk diffusion zone diameter ([1]; WCH57): 48 mm
disk diffusion zone diameter ([1]; WCH77): 39 mm
disk diffusion zone diameter ([1]; WCH86): 31 mm
disk diffusion zone diameter ([1]; WCH89): 35 mm
disk diffusion zone diameter ([1]; WCH92): 29 mm
disk diffusion zone diameter ([1]; WCH137): 37 mm
disk diffusion zone diameter ([1]; WCH158): 35 mm
disk diffusion zone diameter ([1]; WCH184): 11 mm
disk diffusion susceptibility category ([1]; WCH184 (Table 19)): R
disk diffusion zone diameter ([1]; WCH211): 36-37 mm
disk diffusion zone diameter ([1]; WU2): 34 mm
FICI ([3]; S. aureus strain T3-29): 0.625 and 0.75 and 0.62
Antibiotic MIC Alone ([3]; S. aureus strain T3-29): 0.25 µg/mL and 0.5 µg/mL
Result (interaction with NCL812) ([3]; S. aureus strain T3-29): NE (No effect (NE) was defined as 0.5<FICI<4)

Gentamicin
isolates resistant (Kirby-Bauer disc diffusion) ([4]; CA-MRSA (n = 10)): 0.00%
isolates resistant (Kirby-Bauer disc diffusion) ([4]; HA-MRSA (n = 10)): 20.00%
isolates resistant (Kirby-Bauer disc diffusion) [4, 11]: 0.00%
Total isolates resistant (Kirby-Bauer disc diffusion) [4]: 20.00%
FICI ([3]; Staphylococcus spp. Strain MK1): 0.625 and 0.75 and 0.515
Antibiotic MIC Alone ([3]; Staphylococcus spp. Strain MK1): 1 µg/mL and 0.5 µg/mL
Result (interaction with NCL812) ([3]; Staphylococcus spp. Strain MK1): NE (No effect (NE) was defined as 0.5<FICI<4)
